Laboratory results reported in US10709692B2, “Isoxazolidine derived inhibitors of receptor interacting protein kinase 1 (RIPK1)” (Denali Therapeutics Inc., priority 2015, dated 2020).

Columns and labels:
[1] = molecular target: T1, receptor interacting protein kinase 1 (GST-hRIPK1 (8-327)) (Homo sapiens, UniProt Q13546); test: ADP-Glo luminescence assay, RIPK1 autophosphorylation; type: biochemical; details: 1.5 μg/mL GST-hRIPK1 (8-327), 50 μM ATP, 3 hours at room temperature
T1 construct: GST-hRIPK1 (8-327) enzyme was generated by Proteros GmbH by Baculovirus expression system
T1 sequence (Q13546 8-327): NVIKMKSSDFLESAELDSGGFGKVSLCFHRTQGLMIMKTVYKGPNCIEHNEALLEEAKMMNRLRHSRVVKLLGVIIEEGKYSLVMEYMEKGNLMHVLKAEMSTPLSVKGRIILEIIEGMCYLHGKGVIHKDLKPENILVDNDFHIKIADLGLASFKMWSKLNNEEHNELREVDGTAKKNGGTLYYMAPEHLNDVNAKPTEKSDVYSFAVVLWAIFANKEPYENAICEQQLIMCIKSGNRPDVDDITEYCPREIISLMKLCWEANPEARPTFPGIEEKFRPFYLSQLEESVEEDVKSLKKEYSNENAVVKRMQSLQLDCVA
Method: (§1) Compound potency at receptor interacting protein kinase 1 and selectivity at receptor interacting protein kinase 2 and receptor interacting protein kinase 3 was determined in autophosphorylation mode, using an ADP-Glo luminescence assay, which measures the conversion of ATP to ADP.
(§2) GST-hRIPK1 (8-327) enzyme was generated by Proteros GmbH by Baculovirus expression system. GST-hRIPK2 (1-299) and GST-hRIPK3 (1-518) enzymes were purchased from SignalChem. Test compounds were diluted in DMSO and 0.1 μL of solution was dispensed to each well of a 384-well white solid microplates. The assay buffer was 50 mM HEPES pH 7.5, 50 mM NaCl, 30 mM MgCl2. The buffer was supplemented with 0.02% CHAPS, 0.01% of Pluronic F127, 0.1 mg/mL BSA and 1 mM DTT. Only for receptor interacting protein kinase 1 5 mM MnCl2, was included in the assay buffer on the day of the experiment. The enzymatic reaction consisted of 1.5 μg/mL GST-hRIPK1 (8-327) and 50 μM ATP for receptor interacting protein kinase 1, 0.4 μg/mL GST-hRIPK2 (1-299) and 150 μM ATP, 0.4 μg/mL GST-hRIPK3 (1-518) and 15 μM ATP. 5 μL of enzyme and 5 μL of ATP were added to the plate at twice the final assay concentration and incubated at room temperature for 3 hours. Following this reaction, 10 μL of ADP-Glo reagent (Promega) was added to each well and incubated for 40 minutes at room temperature. This stops the kinase reaction and depletes any remaining ATP. 20 μL of ADP-Glo detection reagent was then added to each well and incubated at room temperature for at least 15 minutes. The detection reagent converts ADP to ATP and introduces luciferase and luciferin to detect ATP. The luminescence is then measured with the Envision (PerkinElmer) plate reader. Test compound inhibition was expressed as percent inhibition of internal assay controls. For concentration response curves, normalized data is fit and pIC50 determined using XL-fit (IDBS) for Excel. The pIC50 were averaged to determine a mean value, for a minimum of two independent experiments.
as §1, with “Certain compounds were tested in the following. Compound” for “Compound”, “assay (Berger S. B. et al. (2015) Cell Death Discovery, 1: 15009),” for “assay,”
GST-hRIPK1 (8-327) enzyme was generated by Proteros GmbH by Baculovirus expression system.
as §2, with “Test” for “GST-hRIPK1 (8-327) enzyme was generated by Proteros GmbH by Baculovirus expression system. GST-hRIPK2 (1-299) and GST-hRIPK3 (1-518) enzymes were purchased from SignalChem. Test”, “microplate.” for “microplates.”, “comprised” for “consisted of”, “1” for “1, 0.4 μg/mL GST-hRIPK2 (1-299) and 150 μM ATP, 0.4 μg/mL GST-hRIPK3 (1-518)”, “IC50” for “pIC50”, “experiments. […]” for “experiments.”

[2] = molecular target: T1, receptor interacting protein kinase 1 (GST-hRIPK1 (8-327)); test: Fluorescent Polarization Binding (FP Binding) assay; details: 10 nM GST-hRIPK1 (8-327), 5 nM fluorescent-labeled ligand, 30 min at RT
Outline: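 Displacement of 5 nM fluorescent ligand from 10 nM GST-hRIPK1 (8-327), 30 min at room temperature in pH 7.5 HEPES buffer, 1% DMSO. Fluorescence polarization read (ex 531/em 595 nm); IC50 fitted from percent inhibition and averaged over at least two independent experiments.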

Structure (SMILES)	IC50 [1] [nM]	IC50 [2] [nM]
CN(C)C(=O)N1OCC[C@H]1c1ccccc1 [Compound 6, (3S)—N,N-dimethyl-3-phenyl-1,2-oxazolidine-2-carboxamide]	1000 to 10000	
O=C(N1CCCC1)N1OCC[C@H]1c1ccccc1 [Compound 7, (3S)-3-phenyl-2-(pyrrolidine-1-carbonyl)-1,2-oxazolidine]	1000 to 10000	
O=C(CO)N1OCC[C@H]1c1ccccc1 [Compound 9, 2-hydroxy-1-[(3S)-3-phenyl-1,2-oxazolidin-2-yl]ethan-1-one]	> 10000	
O=C(N1OCC[C@H]1c1ccccc1)C1(O)CC1 [Compound 10, 1-[(3S)-3-Phenyl-1,2-oxazolidine-2-carbonyl]cyclopropan-1-ol]	> 10000	
O=C(C1COC1)N1OCC[C@H]1c1ccccc1 [Compound 11, (3S)-2-(Oxetane-3-carbonyl)-3-phenyl-1,2-oxazolidine]	1000 to 10000	
COCC(=O)N1OCC[C@H]1c1ccccc1 [Compound 13, 2-Methoxy-1-[(3S)-3-phenyl-1,2-oxazolidin-2-yl]ethan-1-one]	1000 to 10000	
C[C@@H](O)C(=O)N1OCC[C@H]1c1ccccc1 [Compound 14, (2R)-2-Hydroxy-1-[(3S)-3-phenyl-1,2-oxazolidin-2-yl]propan-1-one]	> 10000	
CC(C)(C)OC(=O)N1OCC[C@H]1c1ccccc1 [Compound 22, tert-Butyl (3S)-3-phenyl-1,2-oxazolidine-2-carboxylate]	1000 to 10000	
CC(C)(C)OC(=O)N1OCCC1c1ccccc1 (stereo not drawn) [Compound 83, tert-butyl 3-phenylisoxazolidine-2-carboxylate]	1000 to 10000	
CC(C)(C)C(=O)N1OCC[C@@H]1c1ccccc1 [Compound 84, (R)-2,2-dimethyl-1-(3-phenylisoxazolidin-2-yl)propan-1-one]	> 10000	
Cn1c(C#N)ccc1C(=O)N1OCC[C@@H]1c1ccccc1 [Compound 85, (R)-1-methyl-5-(3-phenylisoxazolidine-2-carbonyl)-1H-pyrrole-2-carbonitrile]	> 10000	

The next lines start with the values.

IC50 [1] [nM]	IC50 [2] [nM]	Structure (SMILES)
< 1000		Cn1c(C#N)ccc1C(=O)N1OCCC1c1c(F)cccc1Cl (racemic) [Compound 3, 5-[3-(2-chloro-6-fluorophenyl)-1,2-oxazolidine-2-carbonyl]-1-methyl-1H-pyrrole-2-carbonitrile]
< 1000	< 1000	CC(C)(C)C(=O)N1OCCC1c1ccc(F)cc1 (single isomer, unassigned) [Compound 73, 1-[3-(4-Fluorophenyl)-1,2-oxazolidin-2-yl]-2,2-dimethylpropan-1-one]
< 1000	< 1000	Cc1ncc([C@@H]2CCON2C(=O)C(C)(C)C)cc1F (single isomer, unassigned) [Compound 97]
< 1000	< 1000	Cn1cc([C@@H]2CCON2C(=O)C(C)(C)C)cn1 (single isomer, unassigned) [Compound 106]
< 1000	< 1000	CC(C)(C)C(=O)N1OCC[C@H]1c1cccc(F)c1 (stereo in doubt) [Compound 23, 1-[3-(3-Fluorophenyl)-1,2-oxazolidin-2-yl]-2,2-dimethylpropan-1-one]
< 1000	< 1000	Cn1c(C#N)ccc1C(=O)N1OCC[C@H]1c1ccccc1 [Compound 1, 1-Methyl-5-[(3S)-3-phenyl-1,2-oxazolidine-2-carbonyl]-1H-pyrrole-2-carbonitrile]
< 1000	< 1000	CC(C)(C)C(=O)N1OCC[C@H]1c1ccccc1 [Compound 2, 2,2-dimethyl-1-[(3S)-3-phenyl-1,2-oxazolidin-2-yl]propan-1-one]
< 1000	< 1000	O=C(Nc1ccccc1)N1OCC[C@H]1c1ccccc1 [Compound 4, (3S)—N,3-diphenyl-1,2-oxazolidine-2-carboxamide]
1000 to 10000		CC(C)(C)NC(=O)N1OCC[C@H]1c1ccccc1 [Compound 5, (3S)—N-tert-Butyl-3-phenyl-1,2-oxazolidine-2-carboxamide]
